Reference: patent publication US20130052259A1, “LIPOSOMES COMPRISING AMPHIPATHIC DRUGS AND METHOD FOR THEIR PREPARATION” (priority 2010, published 2013)
Converted amounts (≈) assume the structure as drawn.

How the values were obtained:
[1] = In vitro release of drugs from nanoliposomes in adult bovine serum at 37° C.; type: in vitro ADME; details: drug encapsulated in nSSL
Experimental: For studying the effect of biological fluids, drug loaded nSSLs were incubated up to 96 h at 37° C. in adult bovine serum (Biological Industries, Beit Haemek, Israel).

[2] = test system: Daoy medulloblastoma cells; assay: MTT cytotoxicity and median-effect (CI) analysis, Daoy; details: for Fractional kill (fa): 72 h MTT; for Dx (Dx1, Dx2, Dx12: dose for effect level fa): doses of Table 1 (ng/ml);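 as to all read-outs here: drugs applied at fixed ratios over eight concentrations for 72 h, survival expressed against untreated control wells, affected fraction (fa) derived per well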
Experimental: Human medulloblastoma (Daoy) cells, colon cancer (SW480) cells and neuroblastoma (NB-EB) cells were exposed to fixed ratios at eight concentrations of drugs for 72 hours along the profile of the most cytotoxic drug. Viable cells were quantified using standard MTT assay (T. Mosmann, Rapid colorimetric assay for cellular growth and survival: application to proliferation and cytotoxicity assays. J Immunol Methods 65(1-2) (1983) 55-63).
Test data were converted to a percentage mean cell survival value relative to untreated control wells. The fraction of affected cells (fa) was subsequently determined for each well.
The median effect analysis uses the combination index (CI) value as a quantitative indicator of the degree of synergy or antagonism. Using this analysis method, CI=1.0 reflects additive activity, CI>1 signifies antagonism, and CI<1.0 indicates synergy.
Firstly, in vitro cytotoxicity of VCR, TPT and their combinations was evaluated using the median-effect analysis of Chou et al [T. C. […] The selection of this drug interaction analysis method was based on its suitability for assessing whether drugs interact synergistically (CI<1.0), additively (CI f 1.0), or antagonistically (CI>1.0) as a function of drug concentration for different fixed drug/drug ratios.

SW480 (colon) tumors = assay: Efficacy against SW480 (colon) tumors in nude mice, Kaplan-Meier; details: SW480 tumors s.c., i.v. at days 17, 23 and 29
Experimental: Nine mice were treated in each group. All mice received injections through the tail vain at days 17, 23 and 29.
Approximately 4 million Daoy and SW480 tumor cells were inoculated subcutaneously (s.c.) in the back of 5 weeks old NUDE-Hsd:Athymic mice. Tumor weights were determined according to the equation (length×width^2)/2 using direct caliper measurements (D. M. Euhus, C. Hudd, M. C. LaRegina, F. E. Johnson, Tumor measurement in the nude mouse. J Surg Oncol 31(4) (1986) 229-234; M. M. Tomayko, C. P. Reynolds, Determination of subcutaneous tumor size in athymic (nude) mice. Cancer Chemother Pharmacol 24(3) (1989) 148-154).
The statistical significance between different treatment groups was determined using Mood's median test [A. M. Mood, Introduction to the theory of statistics, McGraw-Hill, New York, 1950.].

in vivo = details: nude, mouse, plasma, iv
[3] = Physicochemical properties of VCR and TPT
Description: The need to develop one liposome that includes two drugs at a specific predefined mole ratio required optimization of the loading conditions and “crosstalk” with the drugs. For this, physiochemical characterization of the two drugs is required.

[4] = Pharmacokinetics in tumor-bearing nude mice after i.v. administration; details: eight hours post injection, based on AUC value
[5] = Maximum tolerated dose (MTD); design: species or system mice; details: mouse, in vivo; ≦15% body weight loss nadir lasting ≦2 days
Experimental: The MTD is determined in clinical trials by testing increasing doses on different groups of people until the highest dose with acceptable side effects is found. For each drug, the MTD as determined in clinical trials is then available via publicly available sources such as SciFinder which is the On Line search engine of The American Chemical Society for various information including MTD (in animals as well as in humans). […] In this context, the “MTD ratio” between two drugs is the ratio between the MTD determined for each drug.
Tumor volume, survival, and body weight were monitored 2-3 times per week.

| Compound | release kinetics order [1] | m (slope, Hill-type coefficient of the dose-effect curve) ([2]; Daoy cells) | Dx (Dx1, Dx2, Dx12: dose for effect level fa) ([2]; fa 0.1) | Dx (Dx1, Dx2, Dx12: dose for effect level fa) ([2]; fa 0.2) | Dx (Dx1, Dx2, Dx12: dose for effect level fa) ([2]; fa 0.3) | Dx (Dx1, Dx2, Dx12: dose for effect level fa) ([2]; fa 0.4) | Dx (Dx1, Dx2, Dx12: dose for effect level fa) ([2]; fa 0.5) | Dx (Dx1, Dx2, Dx12: dose for effect level fa) ([2]; fa 0.6) | Dx (Dx1, Dx2, Dx12: dose for effect level fa) ([2]; fa 0.7) | Dx (Dx1, Dx2, Dx12: dose for effect level fa) ([2]; fa 0.8) | Dx (Dx1, Dx2, Dx12: dose for effect level fa) ([2]; fa 0.9) | AUC (in vivo) | Cmax (in vivo) | MRT (in vivo) | clearance (in vivo) | half-life (in vivo) | pKa [3] | solubility ([3]; pH 6, aqueous buffer) | solubility ([3]; pH 8, aqueous buffer) | further results |
| --- | --- | --- | --- | --- | --- | --- | --- | --- | --- | --- | --- | --- | --- | --- | --- | --- | --- | --- | --- | --- |
| Topotecan [Topotecan (TPT)] | first-order kinetics followed by zero-order kinetics | m: 1.663 | 21.67 | 35.29 | 48.80 | 63.65 | 81.23 | 103.66 | 135.22 | 186.99 | 304.53 | – | – | – | – | – | – | – | – | Dm (dose required to produce the median-effect) ([2]; Daoy cells, […]): Dm: 81.23 ng/ml; Log [1/(1/fa − 1)] ([2]; dose 40 ng/ml): −0.64; Fractional kill (fa) ([2]; dose 40 ng/ml): 0.18; Log [1/(1/fa − 1)] ([2]; dose 60 ng/ml): −0.08; Fractional kill (fa) ([2]; dose 60 ng/ml): 0.46; Log [1/(1/fa − 1)] ([2]; dose 80 ng/ml): 0.04; Fractional kill (fa) ([2]; dose 80 ng/ml): 0.52; Log [1/(1/fa − 1)] ([2]; dose 200 ng/ml): 0.59; Fractional kill (fa) ([2]; dose 200 ng/ml): 0.80; Log [1/(1/fa − 1)] ([2]; dose 400 ng/ml): 1.15; Fractional kill (fa) ([2]; dose 400 ng/ml): 0.93; therapeutic efficacy (Kaplan-Meier, tumor ≧1000 mg as endpoint) (SW480 (colon) tumors; listed as Free TPT): inferior to the liposomal formulations; therapeutic efficacy (Kaplan-Meier, tumor ≧1000 mg as endpoint) (SW480 (colon) tumors; listed as free TPT): more efficacious for colon cancer |
| CC[C@@]1(O)C(=O)OCc2c1cc1n(c2=O)Cc2cc3c(CN(C)C)c(O)ccc3nc2-1 [Topotecan (TPT), Topotecan] | – | – | – | – | – | – | – | – | – | – | – | 2700 ± 910 ng·h/mL | 3980 ± 1040 ng/mL | 0.6 ± 0.07 h | 1.28 mL/min | 61.8 min | 7.65 | 3600 µM (≈ 1520 µg/mL) | 200 µM (≈ 84.3 µg/mL) | Non-polar/polar surface area ratio [3]: 2.81; lactone ratio of TPT [4]: 9% |
| CC[C@]1(O)C[C@H]2CN(CCc3c([nH]c4ccccc34)[C@@](C(=O)OC)(c3cc4c(cc3OC)N(C=O)[C@H]3[C@@](O)(C(=O)OC)[C@H](OC(C)=O)[C@]5(CC)C=CCN6CC[C@]43[C@@H]65)C2)C1 [Vincristine (VCR), Vincristine] | zero-order kinetics | m: 1.926 | 1.76 | 2.68 | 3.55 | 4.46 | 5.50 | 6.79 | 8.55 | 11.31 | 17.22 | 2510 ± 460 ng·h/mL | 1370 ± 340 ng/mL | 1.73 ± 0.3 h | 0.273 mL/min | 125 min | 7.64 | 300 µM (≈ 247 µg/mL) | 10 µM (≈ 8.25 µg/mL) | MTD [5]: 1.5 mg/kg; logP [3]: 2.97; logD ([3]; pH 6): 1.2; logD ([3]; pH 8): 2.81; IC50 ([2]; Homo sapiens, Daoy, read-out: Dm (dose required to produce the median-effect)): 5.51 ng/mL (≈ 6.67 nM); Log [1/(1/fa − 1)] ([2]; dose 1 ng/ml): −1.43; Fractional kill (fa) ([2]; dose 1 ng/ml): 0.04; Log [1/(1/fa − 1)] ([2]; dose 2 ng/ml): −0.93; Fractional kill (fa) ([2]; dose 2 ng/ml): 0.11; Log [1/(1/fa − 1)] ([2]; dose 4 ng/ml): −0.36; Fractional kill (fa) ([2]; dose 4 ng/ml): 0.30; Log [1/(1/fa − 1)] ([2]; dose 8 ng/ml): 0.65; Fractional kill (fa) ([2]; dose 8 ng/ml): 0.82; Log [1/(1/fa − 1)] ([2]; dose 24 ng/ml): 1.07; Fractional kill (fa) ([2]; dose 24 ng/ml): 0.92 |
